Results reported in patent US10131652B2, “Pyrimidinyloxy benzene derivatives as herbicides” (E. I. DU PONT DE NEMOURS AND COMPANY, priority 2014, dated 2018).

Experiments:
Type in all cases: in vivo
[1] = tested on: barnyardgrass (Echinochloa crus-galli); test: Test B pre-/postemergence plant response
Method in brief: (§1)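 Evaluation is visual, about 10 days after application, rating injury from 0 (none) to 100 (complete control) relative to untreated controls. Application was a preemergence soil spray on seeded pots or a postemergence spray on one- to two-leaf plants.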

corn (Zea mays) = test: Test B pre-/postemergence plant response
Method in brief: as §1

[2] = tested on: giant foxtail (Setaria faberii); test: Test B pre-/postemergence plant response
Method in brief: as §1

[3] = tested on: large (Lg) crabgrass (Digitaria sanguinalis); test: Test B pre-/postemergence plant response
Method in brief: as §1

[4] = tested on: morningglory (Ipomoea spp.); test: Test B pre-/postemergence plant response
Method in brief: as §1

[5] = tested on: pigweed (Amaranthus retroflexus); test: Test B pre-/postemergence plant response
Method in brief: as §1

[6] = tested on: velvetleaf (Abutilon theophrasti); test: Test B pre-/postemergence plant response
Method in brief: as §1

[7] = tested on: wheat (Triticum aestivum); test: Test B pre-/postemergence plant response
Method in brief: as §1

[8] = tested on: barnyardgrass (Echinochloa crus-galli); test: Test C flooded paddy test plant response; conditions: Flood, 250 g ai/ha; scale of 0 to 100 where 0 is no effect and 100 is complete control; 13 to 15 days
Method in brief: (§2)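 Scale 0 (no effect) to 100 (complete control), assigned visually versus controls after 13–15 d greenhouse. Application: directly to paddy water, 3 cm flood depth kept constant, 2-leaf stage.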

[9] = tested on: ducksalad (Heteranthera limosa); test: Test C flooded paddy test plant response; conditions: Flood, 250 g ai/ha; scale of 0 to 100 where 0 is no effect and 100 is complete control; 13 to 15 days
Method in brief: as §2

rice (Oryza sativa) = test: Test C flooded paddy test plant response; conditions: Flood, 250 g ai/ha; scale of 0 to 100 where 0 is no effect and 100 is complete control; 13 to 15 days
Method in brief: as §2

[10] = tested on: small-flower umbrella sedge (Cyperus difformis); test: Test C flooded paddy test plant response; conditions: Flood, 250 g ai/ha; scale of 0 to 100 where 0 is no effect and 100 is complete control; 13 to 15 days
Method in brief: as §2

[11] = 125 g ai/ha, postemergence, 0 to 100 scale, 0 no effect, 100 complete control
[12] = Postemergence, 500 g ai/ha, 0 to 100 scale (0 no effect, 100 complete control)
[13] = Preemergence, 125 g ai/ha, 0 to 100 scale where 0 is no effect and 100 is complete control
[14] = Preemergence, 500 g ai/ha, 0 to 100 scale where 0 is no effect and 100 is complete control
[15] = 500 g ai/ha, postemergence, 0 to 100 scale, 0 no effect, 100 complete control
[16] = Preemergence, 125 g ai/ha, 0 to 100 scale (0 no effect, 100 complete control)

SMILES	Plant response rating, Barnyardgrass [1, 11]	Plant response rating, Barnyardgrass [1, 14]	Plant response rating, Corn (corn (Zea mays); [11])	Plant response rating, Corn (corn (Zea mays); [14])	Plant response rating, Foxtail, Giant [2, 11]	Plant response rating, Foxtail, Giant [2, 14]	Plant response rating, Crabgrass, Large [3, 11]	Plant response rating, Crabgrass, Large [3, 14]	Plant response rating, Morningglory [4, 11]	Plant response rating, Morningglory [4, 14]	Plant response rating, Pigweed [5, 11]	Plant response rating, Pigweed [5, 14]	Plant response rating, Velvetleaf [6, 11]	Plant response rating, Velvetleaf [6, 14]	Plant response rating, Wheat [7, 11]	Plant response rating, Wheat [7, 14]	Barnyardgrass plant response rating [8]	Ducksalad plant response rating [9]	Rice plant response rating (rice (Oryza sativa))	Sedge, Umbrella plant response rating [10]	further results
Cn1nc(C(F)(F)F)cc1-c1ccccc1Oc1ncc(Br)cn1 [Compound 30]	0	0	0	0	0	10	0	20	0	0	0	30	10	0	0	0	0	0	0	0	Plant response rating, Barnyardgrass [1, 12]: 0; Plant response rating, Barnyardgrass [1, 13]: 0; Plant response rating, Corn (corn (Zea mays); [12]): 0; Plant response rating, Corn (corn (Zea mays); [13]): 0; Plant response rating, Foxtail, Giant [2, 12]: 10; Plant response rating, Foxtail, Giant [2, 13]: 0; Plant response rating, Crabgrass, Large [3, 12]: 10; Plant response rating, Crabgrass, Large [3, 13]: 0; Plant response rating, Morningglory [4, 12]: 10; Plant response rating, Morningglory [4, 13]: 0; Plant response rating, Pigweed [5, 12]: 10; Plant response rating, Pigweed [5, 13]: 0; Plant response rating, Velvetleaf [6, 12]: 30; Plant response rating, Velvetleaf [6, 13]: 0; Plant response rating, Wheat [7, 12]: 0; Plant response rating, Wheat [7, 13]: 0
O=[N+]([O-])c1cc(Cl)cnc1-c1ccccc1Oc1ncc(Cl)cn1 [Compound 201]	0	0	0	0	0	0	0	0	0	0	0	0	0	0	0	0	0	0	0	0	Plant response rating, Barnyardgrass [1, 15]: 0; Barnyardgrass plant response rating [1, 16]: 0; Plant response rating, Corn (corn (Zea mays); [15]): 0; Corn plant response rating (corn (Zea mays); [16]): 0; Plant response rating, Foxtail, Giant [2, 15]: 0; Foxtail, Giant plant response rating [2, 16]: 0; Plant response rating, Crabgrass, Large [3, 15]: 0; Crabgrass, Large plant response rating [3, 16]: 0; Plant response rating, Morningglory [4, 15]: 0; Morningglory plant response rating [4, 16]: 0; Plant response rating, Pigweed [5, 15]: 0; Pigweed plant response rating [5, 16]: 0; Plant response rating, Velvetleaf [6, 15]: 0; Velvetleaf plant response rating [6, 16]: 0; Plant response rating, Wheat [7, 15]: 0; Wheat plant response rating [7, 16]: 0
N#Cc1cccc(Oc2ncc(Cl)cn2)c1-c1ccc(Cl)cn1 [Compound 202]	10	80	0	0	30	100	10	100	10	20	90	100	10	60	0	20	0	80	0	80	Plant response rating, Barnyardgrass [1, 15]: 40; Barnyardgrass plant response rating [1, 16]: 10; Plant response rating, Corn (corn (Zea mays); [15]): 30; Corn plant response rating (corn (Zea mays); [16]): 0; Plant response rating, Foxtail, Giant [2, 15]: 80; Foxtail, Giant plant response rating [2, 16]: 70; Plant response rating, Crabgrass, Large [3, 15]: 70; Crabgrass, Large plant response rating [3, 16]: 90; Plant response rating, Morningglory [4, 15]: 40; Morningglory plant response rating [4, 16]: 0; Plant response rating, Pigweed [5, 15]: 100; Pigweed plant response rating [5, 16]: 100; Plant response rating, Velvetleaf [6, 15]: 30; Velvetleaf plant response rating [6, 16]: 0; Plant response rating, Wheat [7, 15]: 0; Wheat plant response rating [7, 16]: 0
Cc1ccc(Oc2ncc(Cl)cn2)c(-c2cccc(OC(F)(F)F)c2)c1 [Compound 44]	10	10	0	0	0	10	10	70	20	0	20	10	30	20	0	0	0	0	0	0	Plant response rating, Barnyardgrass [1, 12]: 20; Plant response rating, Barnyardgrass [1, 13]: 0; Plant response rating, Corn (corn (Zea mays); [12]): 20; Plant response rating, Corn (corn (Zea mays); [13]): 0; Plant response rating, Foxtail, Giant [2, 12]: 10; Plant response rating, Foxtail, Giant [2, 13]: 0; Plant response rating, Crabgrass, Large [3, 12]: 20; Plant response rating, Crabgrass, Large [3, 13]: 10; Plant response rating, Morningglory [4, 12]: 30; Plant response rating, Morningglory [4, 13]: 0; Plant response rating, Pigweed [5, 12]: 50; Plant response rating, Pigweed [5, 13]: 0; Plant response rating, Velvetleaf [6, 12]: 70; Plant response rating, Velvetleaf [6, 13]: 0; Plant response rating, Wheat [7, 12]: 0; Plant response rating, Wheat [7, 13]: 0
